One series concerns GSK-3. To be noted: cited from earlier work.
Series [1] concerns HCT-116 colorectal cancer cells. The series can be described thus: Co-culture of HCT-116 and NK-92 cells with or without αPD-1 therapy. It counts as cell-based, Human. The settings on record: not statistically significant. The procedure: (§1) Immune cell co-culture experiments. Co-culture experiments were conducted with GFP+ SW480 or HCT-116 colorectal cancer cells and either NK-92 natural killer cells or TALL-104 T cells in a 48-well plate, in the presence or absence of 9-ING-41. HCT-116 cells were labeled using CellTracker™ Green CMFDA (5-chloromethylfluorescein diacetate), immune cells (NK-92, TALL-104) were labeled using CellTracker™ Blue CMAC Dye (7-amino-4-chloromethylcoumarin), and ethidium homodimer-1 (EthD-1) was used as a marker of cell death (Invitrogen, Thermo Fisher Scientific, Waltham, MA, USA).

The test system is the same in series [2]. Briefly: Co-culture of HCT-116 and TALL-104 cells with or without αPD-1 therapy. It counts as cell-based, Human. To be noted: for TALL-104-mediated tumor cell killing: αPD-1 antibody added to co-culture, compared to TALL-104 cells alone. As to the method:
as §1
9-ING-41 increases tumor cell death in combination with αPD-1 therapy in a co-culture of HCT-116 colorectal cancer cells and immune cells. The inventors were interested in the applicability of GS3K-3 inhibitors such as 9-ING-41 in combination with immune checkpoint blockade. The inventors next performed co-cultures of immune cells (TALL-104, NK-92) and tumor cells (HCT-116) in the presence or absence of 9-ING-41, as well as either pembrolizumab® or nivolumab®, two humanized monoclonal antibodies against PD-1. The inventors evaluated HCT-116 cells in this co-culture model to determine if the 9-ING-41-mediated increase in immune cell-mediated SW480 cell killing could be reproduced in another colorectal cancer cell line.

Turning to `[Li]` [Lithium], the therapeutic index entry in the series with GSK-3 was “narrow therapeutic index”.
With “nivolumab®: humanized monoclonal antibody against PD-1”, the “benefit in combination with NK-92 compared to NK-92 alone” value in series [1] was “limited benefit”. In series [2], the “TALL-104-mediated tumor cell killing” value is “increased amount of TALL-104-mediated tumor cell killing”.
As to “pembrolizumab®: humanized monoclonal antibody against PD-1”, the “benefit in combination with NK-92 compared to NK-92 alone” value in series [1] is listed as “limited benefit”. For the same molecule, in series [2], the “cell death, pembrolizumab+TALL-104 compared to nivolumab+TALL-104” value is “slight increase in cell death” and the “TALL-104-mediated tumor cell killing” value is recorded as “increased amount of TALL-104-mediated tumor cell killing”.
